Assay results taken from US6740645B1, “17β-acyl-17α-propynyl-11β-(cyclic amino) aryl steroids and their derivatives having antagonist hormonal properties” (Research Triangle Institute, priority 1999, dated 2004).

System: rabbit uterus
Assay: anti-McGinty test for antiprogestational activity (McPhail Index)
Format: in vivo
Details: for McPhail Index: estrogen-primed immature female rabbits, n = 3
Experimental: Biological activity was examined by means of the anti-McGinty test for antiprogestational activity. Immature female rabbits weighing 1000 to 1100 grams were primed with estrogen (5 μg of estradiol in sesame oil as vehicle, given subcutaneously) for 6 days, followed by a surgical procedure to introduce the test compounds into the uterine horn [see for example Teruhiko Tamaya, et al., Local progestational and antiprogestational effects of steroids and their metabolites on the rabbit uterus. Japanese Journal of Fertility and Sterility 24:48-51 (1979)]. A single dose of test compound in sesame oil as vehicle, accompanied by a single dose of progesterone (0.3 μg in sesame oil as vehicle) was given. On the third day (dosing being day one) the animals were sacrificed. The uteri were then removed, weighed and a section was kept in 10% formalin for microslide preparation for McPhail Index [M. K. McPhail, The Journal of Physiology, 83: 10 (1934)] determination. […] Antiprogestational compounds should block the effect of progesterone on the McPhail Index, which is zero in the absence of progesterone.

[1] = total dose 0.3 (μg) of test compound + progesterone 0.3 μg, single dose into uterine horn
[2] = total dose 3 of test compound + progesterone 0.3 μg, single dose into uterine horn
[3] = total dose 30 of test compound + progesterone 0.3 μg, single dose into uterine horn

| Compound | McPhail Index (progesterone (P) alone, total dose 0.3 (μg), uterine horn) | McPhail Index [1] | McPhail Index [2] | McPhail Index [3] | antiprogestational effect (in words) (0.3 μg dose, anti-McGinty test) | antiprogestational potency compared with RTI-6617-048 and RTI-6617-040 (in words) (anti-McGinty test, Table 1) |
| --- | --- | --- | --- | --- | --- | --- |
| CC(=O)[C@H]1CC[C@H]2[C@@H]3CCC4=CC(=O)CC[C@]4(C)[C@H]3CC[C@]12C [Progesterone, progesterone] | 2.2 +/− 0.3 |  |  |  |  |  |
| CC#C[C@]1(C(C)=O)CC[C@H]2[C@@H]3CCC4=CC(=O)CCC4=C3[C@@H](c3ccc(N(C)C)cc3)C[C@@]21C [RTI-6617-040, 11β-[4-(N,N-Dimethylamino)phenyl]-17α-(1-propynyl)-19-norpregna-4,9-diene-3,20-dione] |  | 1.83 +/− 0.36 | 0.0 +/− 0.0 | 0.0 +/− 0.0 |  |  |
| CC#CC1(C(C)=O)CCC2C3CCC4=CC(=O)CCC4=C3C(c3ccc(N4CCCCC4)cc3)CC21C (stereo not drawn) [RTI-6617-041, 11β-[4-(N-piperidino)phenyl]-17α-(1-propynyl)-19-norpregna-4,9-diene-3,20-dione] |  | 0.78 +/− 0.21 | 0.0 +/− 0.0 | 0.0 +/− 0.0 | marked effect | markedly more potent |
| C#CC1(C(C)=O)CCC2C3CCC4=CC(=O)CCC4=C3C(c3ccc(N4CCCCC4)cc3)CC21C (stereo not drawn) [RTI-6617-048, 11β-[4-(N-Piperidino)phenyl]-17α-ethynyl-19-norpregna-4,9-diene-3,20-dione] |  | 1.94 +/− 0.31 | 0.89 +/− 0.3 | 0.0 +/− 0.0 |  |  |
